We go through three compounds from patent US9617267B2, “Compounds and methods for kinase modulation, and indications therefor” (Plexxikon Inc., priority 2009, dated 2017).

In data set [1] the target is B-Raf (Homo sapiens (Human), UniProt P15056). Nature of the data set: B-Raf kinase activity biochemical assay (AlphaScreen, biotin-MEK1 phosphorylation). The settings on record: B-Raf. The method in brief: (§1)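 Biotin-MEK1 phosphorylation measured after 45 min kinase reaction at RT with 100 μM ATP final; compounds tested at 8 points from 0.1 mM DMSO stock.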
In general terms: In Alpha technology, singlet oxygen from a donor bead excites a nearby acceptor bead.

The subject of data set [2] is B-Raf. The description is as above. The settings on record: for Biochemical activity ratio B/V600E: ratio of IC50 B-Raf / B-Raf V600E; for Biochemical activity ratio B/C: ratio of IC50 B-Raf / c-Raf-1. An outline of the steps: as §1
The target of the next data set is B-Raf V600E (Homo sapiens (Human), UniProt P15056, V600E). Nature of the data set: B-Raf V600E kinase activity biochemical assay (AlphaScreen, biotin-MEK1 phosphorylation). The note with it: for IC50: B-Raf V600E; for Biochemical activity ratio V600E/C: ratio of IC50 B-Raf V600E / c-Raf-1. The method in brief:
as §1

The next data set has as its target c-Raf-1 (Homo sapiens, UniProt P04049). Kind of data set: c-Raf-1 kinase activity biochemical assay (AlphaScreen, biotin-MEK1 phosphorylation). An outline of the steps: as §1
Data set [3] is described as follows: Relative solubility by turbidity threshold concentration in aqueous buffers (pH 1.5, 4.5, 6.8, 7.4). It is filed as physicochemical. The note with it: for turbidity threshold (L, M, H) 1.4: pH 1.4 [sic] (method: SGF pH 1.5); for turbidity threshold (L, M, H) 4.5: pH 4.5 (SIF); for turbidity threshold (L, M, H) 6.8: pH 6.8 (SIF); for turbidity threshold (L, M, H) 7.4: pH 7.4 (HEPES). The method in brief:
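Solubility class (high >250 μM, moderate 31.3–250 μM, low <31.3 μM) comes from the concentration where absorbance reaches a 0.01 threshold, averaged across 490/535/650 nm. Samples were compound dilutions from DMSO stock, 1 μL into 99 μL buffer at pH 1.5, 4.5, 6.8 or 7.4.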

In a further data set the target is CYP1A2 (Homo sapiens (Human), UniProt P05177). Nature of the data set: CYP enzyme inhibition, fluorescent substrate (CEC). The method in brief: (§2)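 Ten-point 1:1 compound dilutions in NADPH-regenerating cofactor mix, pre-incubated 10 min at 37 °C before enzyme/substrate addition: CYP1A2 0.5 pmol with 5 μM CEC, 15 min, 409 ex/460 em; CYP2D6 1.5 pmol with 1.5 μM AMMC, 30 min, 409 ex/530 em. IC50 from fluorescent product vs concentration.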

The target in another data set is CYP2C19 (Homo sapiens (Human), UniProt P33261). Kind of data set: CYP enzyme inhibition, fluorescent substrate (CEC). An outline of the steps: (§3)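 IC50 values come from plotting product fluorescence against compound concentration; inhibition lowers formation of the fluorescent metabolite. Ten-point twofold dilutions in co-factor mix were held 10 minutes at 37 °C before the enzyme reaction, also run at 37 °C.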

The target in another data set is CYP2C9 (Homo sapiens (Human), UniProt P11712). Kind of data set: CYP enzyme inhibition, fluorescent substrate (MFC). An outline of the steps:
as §3

The next data set deals with CYP2D6 (Homo sapiens (Human), UniProt P10635). Kind of data set: CYP enzyme inhibition, fluorescent substrate (AMMC). Format: in vitro ADME. The note with it: read-out: Cyp IC50 2D6. An outline of the steps: as §2
For another data set, the target named is CYP3A4(BFC) (Homo sapiens (Human), UniProt P08684). Nature of the data set: CYP enzyme inhibition, fluorescent substrate BFC. An outline of the steps: as §3
The target in the next data set is CYP3A4(BQ) (Homo sapiens (Human), UniProt P08684). Kind of data set: CYP enzyme inhibition, fluorescent substrate BQ. The method in brief: as §3
A further data set concerns the target CYP3A4 (Homo sapiens (Human), UniProt P08684). Nature of the data set: CYP enzyme inhibition, fluorescent substrate BFC. The note with it: human, CYP3A4 enzyme (BD Biosciences), probe BFC. An outline of the steps: as §3

Each structure is given as a SMILES string.

CYP3A4(BQ), sequence (P08684 whole entry): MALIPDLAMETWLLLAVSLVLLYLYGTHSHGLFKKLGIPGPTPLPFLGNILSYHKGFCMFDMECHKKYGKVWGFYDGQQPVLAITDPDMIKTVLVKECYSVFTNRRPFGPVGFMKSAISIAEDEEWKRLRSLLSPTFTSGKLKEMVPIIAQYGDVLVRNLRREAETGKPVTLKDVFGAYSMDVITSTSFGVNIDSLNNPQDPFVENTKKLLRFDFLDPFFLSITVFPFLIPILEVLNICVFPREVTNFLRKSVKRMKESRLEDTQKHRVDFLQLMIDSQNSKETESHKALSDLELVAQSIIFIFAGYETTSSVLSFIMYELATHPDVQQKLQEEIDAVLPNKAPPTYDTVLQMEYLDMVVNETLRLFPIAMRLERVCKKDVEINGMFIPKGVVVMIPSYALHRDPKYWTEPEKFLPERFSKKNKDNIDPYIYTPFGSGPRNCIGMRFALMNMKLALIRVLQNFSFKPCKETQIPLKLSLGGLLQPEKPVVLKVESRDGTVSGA
CYP2D6, sequence (P10635 whole entry): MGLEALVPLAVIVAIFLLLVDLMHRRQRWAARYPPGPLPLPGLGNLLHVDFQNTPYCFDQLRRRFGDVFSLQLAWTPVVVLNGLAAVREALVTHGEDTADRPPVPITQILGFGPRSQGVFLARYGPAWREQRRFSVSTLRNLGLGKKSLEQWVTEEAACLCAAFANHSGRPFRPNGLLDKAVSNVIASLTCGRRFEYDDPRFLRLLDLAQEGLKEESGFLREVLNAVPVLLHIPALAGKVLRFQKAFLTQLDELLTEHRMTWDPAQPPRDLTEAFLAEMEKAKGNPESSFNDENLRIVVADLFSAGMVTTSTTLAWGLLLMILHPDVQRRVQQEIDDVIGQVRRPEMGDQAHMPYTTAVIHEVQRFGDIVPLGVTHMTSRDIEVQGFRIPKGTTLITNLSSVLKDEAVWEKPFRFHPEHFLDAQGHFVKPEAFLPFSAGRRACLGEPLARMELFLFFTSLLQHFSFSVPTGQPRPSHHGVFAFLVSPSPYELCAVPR
B-Raf (Homo sapiens (Human), UniProt P15056), sequence (P15056 whole entry): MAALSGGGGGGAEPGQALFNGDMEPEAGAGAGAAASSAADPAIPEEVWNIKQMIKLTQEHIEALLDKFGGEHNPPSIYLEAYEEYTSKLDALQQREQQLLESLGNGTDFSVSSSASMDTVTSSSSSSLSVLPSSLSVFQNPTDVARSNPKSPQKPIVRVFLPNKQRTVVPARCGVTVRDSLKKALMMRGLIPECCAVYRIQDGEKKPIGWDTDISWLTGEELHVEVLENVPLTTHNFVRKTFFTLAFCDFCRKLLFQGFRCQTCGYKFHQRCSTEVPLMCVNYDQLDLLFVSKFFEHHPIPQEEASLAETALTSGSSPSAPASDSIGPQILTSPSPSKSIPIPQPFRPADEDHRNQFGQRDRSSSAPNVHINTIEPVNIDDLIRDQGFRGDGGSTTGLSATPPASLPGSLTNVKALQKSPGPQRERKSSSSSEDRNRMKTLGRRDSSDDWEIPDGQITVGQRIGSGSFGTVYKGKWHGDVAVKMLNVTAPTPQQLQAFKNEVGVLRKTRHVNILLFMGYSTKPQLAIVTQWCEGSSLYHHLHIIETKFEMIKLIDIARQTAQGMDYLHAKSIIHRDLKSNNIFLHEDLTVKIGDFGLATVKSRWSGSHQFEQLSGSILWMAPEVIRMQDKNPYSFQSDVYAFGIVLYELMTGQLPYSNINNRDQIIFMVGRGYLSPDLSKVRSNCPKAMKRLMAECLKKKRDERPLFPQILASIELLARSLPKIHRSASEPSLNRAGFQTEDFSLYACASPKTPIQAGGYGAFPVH
c-Raf-1, sequence (P04049 whole entry, looked up): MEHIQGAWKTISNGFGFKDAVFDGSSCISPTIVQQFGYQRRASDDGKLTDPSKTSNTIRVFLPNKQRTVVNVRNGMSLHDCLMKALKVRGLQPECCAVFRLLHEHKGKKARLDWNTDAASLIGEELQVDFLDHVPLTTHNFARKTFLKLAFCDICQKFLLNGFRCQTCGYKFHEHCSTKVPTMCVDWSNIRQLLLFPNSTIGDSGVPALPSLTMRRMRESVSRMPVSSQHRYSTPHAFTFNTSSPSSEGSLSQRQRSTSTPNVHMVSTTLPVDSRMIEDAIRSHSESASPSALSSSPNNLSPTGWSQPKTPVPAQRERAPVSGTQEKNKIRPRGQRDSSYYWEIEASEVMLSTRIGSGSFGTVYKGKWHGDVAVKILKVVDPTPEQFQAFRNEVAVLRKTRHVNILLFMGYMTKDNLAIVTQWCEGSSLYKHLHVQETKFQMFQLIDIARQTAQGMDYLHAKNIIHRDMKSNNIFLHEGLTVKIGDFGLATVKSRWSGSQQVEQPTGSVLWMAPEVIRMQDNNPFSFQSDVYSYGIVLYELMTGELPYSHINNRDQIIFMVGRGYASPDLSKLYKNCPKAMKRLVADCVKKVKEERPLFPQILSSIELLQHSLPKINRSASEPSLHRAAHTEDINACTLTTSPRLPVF
CYP2C19, sequence (P33261 whole entry): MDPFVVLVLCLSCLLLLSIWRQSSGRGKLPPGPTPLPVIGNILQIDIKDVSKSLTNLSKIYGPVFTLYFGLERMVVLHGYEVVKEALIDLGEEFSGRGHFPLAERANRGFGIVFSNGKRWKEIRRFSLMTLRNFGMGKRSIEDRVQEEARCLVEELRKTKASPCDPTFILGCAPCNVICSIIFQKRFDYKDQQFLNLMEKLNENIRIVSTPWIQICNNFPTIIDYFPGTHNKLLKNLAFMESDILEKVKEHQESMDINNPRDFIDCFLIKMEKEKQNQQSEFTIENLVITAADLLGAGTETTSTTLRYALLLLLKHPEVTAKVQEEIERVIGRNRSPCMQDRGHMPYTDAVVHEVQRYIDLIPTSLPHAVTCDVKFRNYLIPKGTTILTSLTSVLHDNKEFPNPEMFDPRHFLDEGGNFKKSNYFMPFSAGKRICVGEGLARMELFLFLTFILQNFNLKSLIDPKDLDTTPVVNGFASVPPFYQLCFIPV
CYP2C9, sequence (P11712 whole entry): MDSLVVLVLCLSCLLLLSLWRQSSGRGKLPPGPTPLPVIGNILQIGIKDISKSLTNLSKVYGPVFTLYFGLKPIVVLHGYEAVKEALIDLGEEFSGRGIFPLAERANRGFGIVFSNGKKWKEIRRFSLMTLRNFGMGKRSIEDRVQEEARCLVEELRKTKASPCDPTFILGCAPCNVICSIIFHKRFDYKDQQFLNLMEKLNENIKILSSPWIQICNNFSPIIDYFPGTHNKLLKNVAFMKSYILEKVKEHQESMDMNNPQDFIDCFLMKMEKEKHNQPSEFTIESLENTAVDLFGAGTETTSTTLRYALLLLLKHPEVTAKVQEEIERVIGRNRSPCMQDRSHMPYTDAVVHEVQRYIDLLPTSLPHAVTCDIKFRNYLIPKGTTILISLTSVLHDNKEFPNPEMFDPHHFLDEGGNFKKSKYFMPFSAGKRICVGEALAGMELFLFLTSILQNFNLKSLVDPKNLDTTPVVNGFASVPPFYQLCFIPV
CYP1A2, sequence (P05177 whole entry): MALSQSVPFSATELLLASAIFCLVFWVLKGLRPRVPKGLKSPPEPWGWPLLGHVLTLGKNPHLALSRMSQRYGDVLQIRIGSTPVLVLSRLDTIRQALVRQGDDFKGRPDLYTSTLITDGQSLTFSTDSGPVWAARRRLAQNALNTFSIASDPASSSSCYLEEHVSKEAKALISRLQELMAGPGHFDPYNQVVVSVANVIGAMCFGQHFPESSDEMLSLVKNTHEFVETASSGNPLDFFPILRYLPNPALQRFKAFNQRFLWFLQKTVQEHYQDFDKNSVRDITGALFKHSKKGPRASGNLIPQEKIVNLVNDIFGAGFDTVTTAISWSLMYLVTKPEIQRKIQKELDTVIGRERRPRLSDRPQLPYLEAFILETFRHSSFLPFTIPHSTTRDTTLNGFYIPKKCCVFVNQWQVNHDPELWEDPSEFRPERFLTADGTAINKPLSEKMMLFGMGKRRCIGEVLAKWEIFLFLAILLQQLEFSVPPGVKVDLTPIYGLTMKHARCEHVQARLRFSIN
B-Raf V600E, sequence (P15056 whole entry V600E): as the sequence (P15056 whole entry) above, with V600E counted along it
CYP3A4(BFC), sequence (P08684 whole entry): as the sequence (P08684 whole entry) above
CYP3A4, sequence (P08684 whole entry): as above

In general, IC50 refers to the concentration that gives 50% inhibition. For the compound `N#Cc1c(Cl)cnc2[nH]cc(C(=O)c3c(F)ccc(NS(=O)(=O)c4ccc(C(F)(F)F)cc4)c3F)c12` [P-2010, N-[3-(5-Chloro-4-cyano-1H-pyrrolo[2,3-b]pyridine-3-carbonyl)-2,4-difluoro-phenyl]-4-trifluoromethyl-benzenesulfonamide], the IC50 on B-Raf [1] was less than 0.1 µM; at B-Raf V600E, less than 0.1 µM; against c-Raf-1, less than 0.1 µM; against CYP1A2, more than 10 µM; at CYP2C19, more than 10 µM; against CYP2C9, 5 to 10 µM. The concentration for half-maximal inhibition (IC50) on CYP2D6 is less than 5 µM; against CYP3A4(BFC), more than 10 µM; against CYP3A4(BQ), more than 10 µM. In addition, the “Biochemical activity ratio B/V600E” value with B-Raf [2] is reported as 0.1-10. For the same compound, in the data set on B-Raf [2], the “Biochemical activity ratio B/C” value is more than 10. For the same compound, the “Biochemical activity ratio V600E/C” value on B-Raf V600E is recorded as more than 10. Further, the “turbidity threshold (L, M, H) 1.4” value in data set [3] was “L (low solubility if the threshold concentration is <31.3 μM)”. Moreover, in data set [3], the “turbidity threshold (L, M, H) 4.5” value was “L (low solubility if the threshold concentration is <31.3 μM)”. Further, in [3], the “turbidity threshold (L, M, H) 6.8” value was “L (low solubility if the threshold concentration is <31.3 μM)”. Also, the “turbidity threshold (L, M, H) 7.4” value in data set [3] is reported as “M (moderate solubility if the threshold concentration is 31.3 μM to 250 μM)”.
`Cc1c(Cl)cnc2[nH]cc(C(=O)c3c(F)ccc(NS(=O)(=O)c4ccc(C(F)(F)F)cc4)c3F)c12` [P-2011, N-[3-(5-Chloro-4-methyl-1H-pyrrolo[2,3-b]pyridine-3-carbonyl)-2,4-difluoro-phenyl]-4-trifluoromethyl-benzene sulfonamide]: the IC50 against B-Raf [1] was less than 0.1 µM; against B-Raf V600E, more than 0.1 µM; against c-Raf-1, less than 0.1 µM; on CYP1A2, more than 10 µM; at CYP2C19, less than 5 µM; against CYP2C9 it was more than 10 µM. Besides, the values for the half-maximal inhibitory concentration (IC50) at CYP2D6, at CYP3A4(BFC) and at CYP3A4(BQ) were 5 to 10 µM, more than 10 µM and more than 10 µM, respectively. Moreover, the “Biochemical activity ratio B/V600E” value in the data set on B-Raf [2] is 0.1-10. Moreover, the “Biochemical activity ratio B/C” value in the data set with B-Raf [2] is recorded as 0.1-10. The “Biochemical activity ratio V600E/C” value on B-Raf V600E was more than 10. For the same compound, the “turbidity threshold (L, M, H) 1.4” value in data set [3] was “L (low solubility if the threshold concentration is <31.3 μM)”. Also, the “turbidity threshold (L, M, H) 4.5” value in [3] is given as “L (low solubility if the threshold concentration is <31.3 μM)”. In data set [3], the “turbidity threshold (L, M, H) 6.8” value is reported as “L (low solubility if the threshold concentration is <31.3 μM)”. In [3], the “turbidity threshold (L, M, H) 7.4” value is “L (low solubility if the threshold concentration is <31.3 μM)”.
Consider `CCCS(=O)(=O)Nc1ccc(F)c(C(=O)c2c[nH]c3nccc(NC4CCCC4)c23)c1F` [P-2012, Propane-1-sulfonic acid [3-(4-cyclopentylamino-1H-pyrrolo[2,3-b]pyridine-3-carbonyl)-2,4-difluoro-phenyl]-amide], for which the concentration for half-maximal inhibition (IC50) on B-Raf [1] is more than 0.1 µM; at B-Raf V600E, less than 0.1 µM; on c-Raf-1 it was less than 0.1 µM; against CYP3A4(BQ) it was more than 10 µM. In addition, the “Biochemical activity ratio B/V600E” value in the data set with B-Raf [2] is listed as 0.1-10. For the same compound, in the data set with B-Raf [2], the “Biochemical activity ratio B/C” value is more than 10. Besides, at B-Raf V600E, the “Biochemical activity ratio V600E/C” value is listed as 0.1-10. The compound further had an IC50 at 15 min against CYP1A2 (human, CYP1A2 enzyme (BD Biosciences), probe CEC) of more than 10 µM. In addition, the IC50 at 30 min on CYP2C19 (human, CYP2C19 enzyme (BD Biosciences), probe CEC) was more than 10 µM; on CYP2D6 (human, CYP2D6 enzyme (BD Biosciences), probe AMMC) it was more than 10 µM; at CYP3A4, more than 10 µM. Besides, at CYP2C9 (human, CYP2C9 enzyme (BD Biosciences), probe MFC), the IC50 at 45 min was more than 10 µM.
